Laboratory results from ChEMBL document CHEMBL1201862, “PubChem BioAssay data set” (2004).
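Step 1: Grow cells in 96-well plates. Step 2: Expose to compound for 48 hours at 5 concentrations. Step 3: Interpolate endpoints linearly; if unreached, use highest concentration. GI50 = concentration required for 50% inhibition of growth.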 The source made the active and inactive calls. Cut-off read from the data, not from the text of the source: active = GI50 up to about 1.1 µM and inactive = higher.

Assays:
Assay in all cases: inhibition of tumour cell growth, NCI panel, 48 h
[1] = system: HCT-15
[2] = system: UO-31
[3] = system: OVCAR-5
[4] = system: OVCAR-3
[5] = system: HOP-62
[6] = system: SK-MEL-28
[7] = system: UACC-62
[8] = system: SNB-19
[9] = system: OVCAR-4
[10] = system: CAKI-1
[11] = system: EKVX
[12] = system: KM12
[13] = system: KM-20L2
[14] = system: XF498
[15] = system: SN12C
[16] = system: COLO 205
[17] = system: SK-OV-3
[18] = system: SW-620
[19] = system: SR
[20] = system: A549
[21] = system: U-251
[22] = system: HL-60
[23] = system: CCRF-CEM
[24] = system: 786-0
[25] = system: RXF 393
[26] = system: SNB-78
[27] = system: Malme-3M
[28] = system: NCI-H23
[29] = system: SK-MEL-5
[30] = system: SF-268
[31] = system: NCI-H226
[32] = system: M19-MEL
[33] = system: SNB-75
[34] = system: SF-295
[35] = system: DLD-1
[36] = system: M14
[37] = system: LOX IMVI
[38] = system: SF-539
[39] = system: OVCAR-8
[40] = system: DMS-273
[41] = system: DMS-114
[42] = system: HOP-92
[43] = system: K562
[44] = system: HCT-116
[45] = system: ACHN
[46] = system: HT-29
[47] = system: LXFL 529
[48] = system: TK-10
[49] = system: UACC-257
[50] = system: SK-MEL-2
[51] = system: IGROV-1
[52] = system: MOLT-4
[53] = system: NCI-H522
[54] = system: NCI-H460
[55] = system: HOP-18
[56] = system: NCI/ADR-RES
[57] = system: HCC 2998
[58] = system: A498
[59] = system: MCF7
[60] = system: RPMI-8226
[61] = system: MDA-MB-231
[62] = system: T47D
[63] = system: PC-3
[64] = system: BT-549
[65] = system: DU-145
[66] = system: Hs-578T
[67] = system: MDA-N
[68] = system: MDA-MB-435

`O/N=C/c1ncccc1C1OCCO1` was tested, and the GI50 [1] was > 100 µM, the GI50 [2] was > 100 µM (inactive) and the GI50 [3] was > 100 µM (inactive). For the same molecule, the GI50 [4] was > 100 µM (inactive), the GI50 [5] was > 100 µM (inactive) and the GI50 [6] was > 100 µM (inactive). For the same molecule, the GI50 [7] was > 100 µM (inactive), the GI50 [8] was > 100 µM (inactive) and the GI50 [9] was > 100 µM (inactive). For the same molecule, the GI50 [10] was > 100 µM (inactive), the GI50 [11] was > 100 µM (inactive) and the GI50 [12] was > 100 µM (inactive). The GI50 [13] was > 100 µM (inactive), the GI50 [14] was > 100 µM (inactive) and the GI50 [15] was > 100 µM (inactive). For the same molecule, the GI50 [16] was > 100 µM (inactive), the GI50 [17] was > 100 µM (inactive) and the GI50 [18] was > 100 µM (inactive). For the same molecule, the GI50 [19] was > 100 µM (inactive), the GI50 [20] was > 100 µM (inactive) and the GI50 [21] was > 100 µM (inactive). The GI50 [22] was > 100 µM (inactive), the GI50 [23] was > 100 µM (inactive) and the GI50 [24] was > 100 µM (inactive). The GI50 [25] was > 100 µM (inactive), the GI50 [26] was > 100 µM (inactive) and the GI50 [27] was > 100 µM (inactive). The GI50 [28] was > 100 µM (inactive), the GI50 [29] was > 100 µM (inactive) and the GI50 [30] was > 100 µM (inactive). The GI50 [31] was > 100 µM (inactive), the GI50 [32] was > 100 µM (inactive) and the GI50 [33] was > 100 µM (inactive). For the same molecule, the GI50 [34] was > 100 µM (inactive), the GI50 [35] was > 100 µM (inactive) and the GI50 [36] was > 100 µM (inactive). The GI50 [37] was > 100 µM (inactive), the GI50 [38] was > 100 µM (inactive) and the GI50 [39] was > 100 µM (inactive). For the same molecule, the GI50 [40] was > 100 µM (inactive), the GI50 [41] was > 100 µM (inactive) and the GI50 [42] was > 100 µM (inactive). The GI50 [43] was > 100 µM (inactive), the GI50 [44] was > 100 µM (inactive) and the GI50 [45] was > 100 µM (inactive). The GI50 [46] was > 100 µM (inactive), the GI50 [47] was > 100 µM (inactive) and the GI50 [48] was > 100 µM (inactive). The GI50 [49] was > 100 µM (inactive), the GI50 [50] was > 100 µM (inactive) and the GI50 [51] was > 100 µM (inactive). The GI50 [52] was > 100 µM (inactive), the GI50 [53] was > 100 µM (inactive) and the GI50 [54] was > 100 µM (inactive). The GI50 [55] was > 100 µM (inactive).

`CCOC(=O)c1cc(Cl)ccc1OC(N)=O` was tested, and the GI50 [1] was > 100 µM, the GI50 [2] was > 100 µM (inactive) and the GI50 [56] was > 100 µM (inactive). The GI50 [3] was > 100 µM (inactive), the GI50 [4] was > 100 µM (inactive) and the GI50 [57] was > 100 µM (inactive). The GI50 [5] was > 100 µM (inactive), the GI50 [6] was > 100 µM (inactive) and the GI50 [7] was > 100 µM (inactive). For the same molecule, the GI50 [8] was > 100 µM (inactive), the GI50 [9] was > 100 µM (inactive) and the GI50 [10] was > 100 µM (inactive). The GI50 [11] was > 100 µM (inactive), the GI50 [12] was > 100 µM (inactive) and the GI50 [13] was > 100 µM (inactive). The GI50 [14] was > 100 µM (inactive), the GI50 [15] was > 100 µM (inactive) and the GI50 [16] was > 100 µM (inactive). The GI50 [17] was > 100 µM (inactive), the GI50 [18] was > 100 µM (inactive) and the GI50 [20] was > 100 µM (inactive). For the same molecule, the GI50 [21] was > 100 µM (inactive), the GI50 [22] was > 100 µM (inactive) and the GI50 [23] was > 100 µM (inactive). For the same molecule, the GI50 [25] was > 100 µM (inactive), the GI50 [26] was > 100 µM (inactive) and the GI50 [28] was > 100 µM (inactive). For the same molecule, the GI50 [29] was > 100 µM (inactive), the GI50 [30] was > 100 µM (inactive) and the GI50 [31] was > 100 µM (inactive). For the same molecule, the GI50 [32] was > 100 µM (inactive), the GI50 [33] was > 100 µM (inactive) and the GI50 [34] was > 100 µM (inactive). The GI50 [35] was > 100 µM (inactive), the GI50 [37] was > 100 µM (inactive) and the GI50 [38] was > 100 µM (inactive). The GI50 [39] was > 100 µM (inactive), the GI50 [40] was > 100 µM (inactive) and the GI50 [58] was > 100 µM (inactive). The GI50 [41] was > 100 µM (inactive), the GI50 [42] was > 100 µM (inactive) and the GI50 [43] was > 100 µM (inactive). For the same molecule, the GI50 [44] was > 100 µM (inactive), the GI50 [59] was > 100 µM (inactive) and the GI50 [46] was > 100 µM (inactive). The GI50 [49] was > 100 µM (inactive), the GI50 [50] was > 100 µM (inactive) and the GI50 [51] was > 100 µM (inactive). The GI50 [52] was > 100 µM (inactive), the GI50 [60] was > 100 µM (inactive) and the GI50 [54] was > 100 µM (inactive). For the same molecule, the GI50 [55] was > 96.4 µM (inactive).

In the case of `Oc1cc(-c2cccc(F)c2)nc2cc3c(cc12)OCO3`, the GI50 [1] is reported as 0.0711 µM, the GI50 [2] is reported as 0.124 µM (active) and the GI50 [56] is reported as 0.0199 µM (active). For the same molecule, the GI50 [3] was 0.345 µM (active), the GI50 [4] was 0.0222 µM (active) and the GI50 [57] was 0.0705 µM (active). The GI50 [5] was 0.165 µM (active), the GI50 [6] was 0.0439 µM (active) and the GI50 [7] was 0.0345 µM (active). For the same molecule, the GI50 [8] was 0.124 µM (active), the GI50 [61] was 0.141 µM (active) and the GI50 [9] was 1.26 µM (inactive). The GI50 [62] was > 100 µM (inactive), the GI50 [10] was 0.0513 µM (active) and the GI50 [11] was 6.56 µM (inactive). For the same molecule, the GI50 [12] was 0.0341 µM (active), the GI50 [14] was 0.495 µM (active) and the GI50 [63] was 0.0473 µM (active). For the same molecule, the GI50 [64] was 0.2 µM (active), the GI50 [65] was 0.0524 µM (active) and the GI50 [15] was 0.129 µM (active). For the same molecule, the GI50 [16] was 0.0743 µM (active), the GI50 [17] was 0.0698 µM (active) and the GI50 [18] was 0.0356 µM (active). The GI50 [19] was 0.0241 µM (active), the GI50 [20] was 0.119 µM (active) and the GI50 [21] was 0.0757 µM (active). For the same molecule, the GI50 [22] was 0.0313 µM (active), the GI50 [23] was 0.0507 µM (active) and the GI50 [24] was 0.0441 µM (active). For the same molecule, the GI50 [25] was 0.0546 µM (active), the GI50 [26] was 0.343 µM (active) and the GI50 [27] was 0.0454 µM (active). The GI50 [28] was 0.294 µM (active), the GI50 [29] was 0.03 µM (active) and the GI50 [30] was 0.115 µM (active). For the same molecule, the GI50 [32] was 0.272 µM (active), the GI50 [33] was 0.0334 µM (active) and the GI50 [34] was 0.102 µM (active). For the same molecule, the GI50 [35] was 0.252 µM (active), the GI50 [36] was 0.0402 µM (active) and the GI50 [37] was 0.0692 µM (active). The GI50 [38] was 0.0573 µM (active), the GI50 [39] was 0.0347 µM (active) and the GI50 [40] was 0.349 µM (active). For the same molecule, the GI50 [58] was 0.157 µM (active), the GI50 [66] was 0.0226 µM (active) and the GI50 [41] was 0.239 µM (active). For the same molecule, the GI50 [42] was 0.272 µM (active), the GI50 [43] was 0.0653 µM (active) and the GI50 [44] was 0.0405 µM (active). The GI50 [45] was 0.119 µM (active), the GI50 [59] was 0.108 µM (active) and the GI50 [47] was 0.463 µM (active). The GI50 [48] was 0.879 µM (active), the GI50 [49] was 0.0236 µM (active) and the GI50 [50] was 0.0308 µM (active). For the same molecule, the GI50 [51] was 0.102 µM (active), the GI50 [67] was 0.0111 µM (active) and the GI50 [68] was 0.0112 µM (active). The GI50 [52] was 0.136 µM (active), the GI50 [53] was 0.029 µM (active) and the GI50 [60] was 0.0581 µM (active). The GI50 [54] was 0.07 µM (active) and the GI50 [55] was 5.42 µM (inactive).
